This assay addresses recombinant human 15-PGDH (Homo sapiens (Human), UniProt P15428). Put plainly: 15-PGDH enzyme inhibition test. The class given is biochemical. To be noted: 4 nM recombinant human 15-PGDH, 30 μM PGE2, 1 mM NAD+, fluorescence 340/440 nm after 60 min. As to the method: 15-PGDH Enzyme Inhibition Test
Test compounds and 4 nM recombinant human 15-PGDH (R&D systems) in 50 mM Tris-HCl (pH 8.0) containing 0.01% TWEEN 20 (Sigma) and 0.01% bovine gamma globulin (Sigma) were put into 384 Flat Bottom Black plates (Corning, 3820) and allowed to stand for 12 minutes at room temperature. Then, 30 μM PGE2 (Cayman chemical) and 1 mM NAD^+ (Sigma) were added to start reaction. Sixty minutes after the start of reaction, signals were measured at an excitation wavelength of 340 nm and a fluorescence emission wavelength of 440 nm using Synergy 2 (BioTeck). The intensity of the fluorescent signal obtained when an assay buffer was added in place of the test compounds and NAD^+ was defined as 100% and that obtained with the addition of NAD^+ was defined as 0%.
Chain of recombinant human 15-PGDH (P15428 whole entry): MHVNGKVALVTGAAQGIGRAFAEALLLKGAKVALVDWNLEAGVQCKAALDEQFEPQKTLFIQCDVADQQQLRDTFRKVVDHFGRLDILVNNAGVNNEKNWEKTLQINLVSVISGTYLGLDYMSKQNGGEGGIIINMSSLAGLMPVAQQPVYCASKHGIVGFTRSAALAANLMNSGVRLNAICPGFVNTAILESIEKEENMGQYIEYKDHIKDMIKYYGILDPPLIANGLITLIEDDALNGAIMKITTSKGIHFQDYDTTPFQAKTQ
Consider `CN1Cc2cc(-c3c(F)ccc4cc(C(=O)N5CCC(F)(F)CC5)ccc34)cnc2C1=O` [compound 85], for which the IC50 (usually the concentration at which inhibition is half-maximal) fell in the range of 3 to 10 nM. Consider `O=C(c1ccc2c(-c3cc4cc[nH]c(=O)c4cn3)c(F)ccc2c1)N1CCC(F)(F)CC1` [compound 86], for which the IC50 was less than 3 nM. As to `O=C(c1ccc2c(-c3ccc4c(=O)[nH]ncc4c3)c(F)ccc2c1)N1CCC(F)(F)CC1` [compound 87], the IC50 was less than 3 nM. As for `CN1Cc2cc(-c3cccc4cc(C(=O)N5CCC(F)(F)CC5)ccc34)ncc2C1=O` [compound 88], the IC50 was less than 3 nM. Consider `O=C(c1ccc2cc(-c3ccc4c(=O)[nH]ccc4c3)ccc2c1)N1CCC(F)(F)CC1` [compound 89], for which the IC50 was no less than 10 nM. With `Cn1nc2n(c1=O)CCN(c1cccc3cc(C(=O)N4CCCCC4)cnc13)C2` [compound 90], the IC50 is 3 to 10 nM. `C[C@@H]1CCCN(C(=O)c2ccc3c(N4CCc5ncccc5C4)cccc3c2)C1` [compound 91]: the IC50 was less than 3 nM. For `Cn1nc2n(c1=O)CCN(c1cccc3cc(C(=O)N4CCCC5(CC5)C4)ccc13)C2` [compound 92], the IC50 is less than 3 nM. With `O=C(c1ccc2c(N3CCn4c(nn(CC(F)F)c4=O)C3)cccc2c1)N1CCC[C@H](C(F)(F)F)C1` [compound 93], the IC50 was less than 3 nM. Next, `Cn1nc2n(c1=O)CCN(c1cccc3cc(C(=O)N4CCCC5CC54)ccc13)C2` (stereo not shown) [compound 94]: less than 3 nM; `Cn1cnc2c1CCN(c1cccc3cc(C(=O)N4CCCCC4)ccc13)C2` [compound 95]: 3 to 10 nM.

Take `CN1CC2CN(c3cccc4cc(C(=O)N5CCCCC5)ccc34)CCN2C1=O` (stereo not shown) [compound 96]: the IC50 is 3 to 10 nM. Next, `COC(=O)c1ccc(-c2cccc3cc(C(=O)N4CCC(F)(F)CC4)ccc23)cc1F` [compound 97]: 3 to 10 nM; `CN1Cc2cc(-c3ccnc4cc(C(=O)N5CCCCC5)ccc34)ccc2C1=O` [compound 98]: less than 3 nM. Turning to `CN1Cc2cc(-c3cccc4cc(C(=O)N5CCC(F)(F)CC5)cnc34)ccc2C1=O` [compound 99], the IC50 lay within 3 to 10 nM. For `Cc1ccc2cc(C(=O)N3CCC(F)(F)CC3)ccc2c1-c1ccc2c(=O)[nH]ncc2c1` [compound 100], the IC50 is less than 3 nM.

On to `O=C1NCc2nc(-c3cccc4cc(C(=O)N5CCC(F)(F)CC5)ccc34)ccc21` [compound 101], for which the IC50 was less than 3 nM. Take `O=C(c1ccc2c(-c3cnc4c(=O)[nH]ncc4c3)c(F)ccc2c1)N1CCC(F)(F)CC1` [compound 102]: the IC50 was in the range of 3 to 10 nM.

With `C[C@H]1CCCN(C(=O)c2ccc3c(N4CCn5c(nn(C)c5=O)C4)cccc3c2)C1` [compound 103], the IC50 is less than 3 nM. For the compound `C[C@H]1CCCN(C(=O)c2ccc3c(N4CCn5c(nn(CC(F)F)c5=O)C4)cccc3c2)C1` [compound 104], the IC50 is less than 3 nM. On to `O=C(c1ccc2c(N3CCc4ncccc4C3)cccc2c1)N1CCCC2(CC2)C1` [compound 105], for which the IC50 was less than 3 nM.

With `Cn1nc2n(c1=O)CCN(c1nccc3cc(C(=O)N4CCC(F)(F)CC4)cc(F)c13)C2` [compound 106], the IC50 lay within 3 to 10 nM.

In the case of `Cn1ccc2c(c1=O)CCN(c1cccc3cc(C(=O)N4CCCCC4)ccc13)C2` [compound 107], the IC50 was less than 3 nM. Regarding `C[C@@H]1CCN(C(=O)c2ccc3c(N4CCc5ncccc5C4)cccc3c2)C1` [compound 108], the IC50 was less than 3 nM. Take `O=C(c1ccc2c(-c3ccn4c(=O)[nH]nc4c3)cccc2c1)N1CCCCC1` [compound 109]: the IC50 is less than 3 nM. Next, `O=C(c1ccc2c(-c3ccc4c(=O)[nH]ccc4c3)cccc2c1)N1CCC(F)(F)CC1` [compound 110]: less than 3 nM; `O=C(c1ccc2c(-c3cc4cc[nH]c(=O)c4cn3)cccc2c1)N1CCC(F)(F)CC1` [compound 111]: less than 3 nM. Consider `O=C(c1ccc2c(-c3ccc4c(c3)CN(CC3(C(F)(F)F)CC3)C4=O)cccc2c1)N1CCC(F)(F)CC1` [compound 113], for which the IC50 is 3 to 10 nM. With `O=C(c1ccc2c(-c3ccc4c[nH]c(=O)cc4c3)cccc2c1)N1CCC(F)(F)CC1` [compound 114], the IC50 was 3 to 10 nM.

Regarding `Cc1c(-c2cccc3cc(C(=O)N4CCC(F)(F)CC4)ccc23)ccn2c(=O)n(C)nc12` [compound 115], the IC50 is less than 3 nM.

In the case of `Cn1ccc2cc(-c3cccc4cc(C(=O)N5CCC(F)(F)CC5)ccc34)ccc2c1=O` [compound 116], the IC50 was less than 3 nM. Turning to `Cn1ncc2cc(-c3cccc4cc(C(=O)N5CCC(F)(F)CC5)ccc34)ccc2c1=O` [compound 117], the IC50 is less than 3 nM. On to `O=C(c1ccc2c(-c3ccc4c(=O)n(CCO)ncc4c3)cccc2c1)N1CCC(F)(F)CC1` [compound 118], for which the IC50 is less than 3 nM. `CC1CN(C(=O)c2ccc3c(-c4ccc5c(=O)[nH]ncc5c4)cccc3c2)CCC1(F)F` (stereo not shown) [compound 119]: the IC50 is less than 3 nM.

As for `CN1Cc2cc(-c3cncc4cc(C(=O)N5CCC(F)(F)CC5)ccc34)ccc2C1=O` [compound 120], the IC50 was less than 3 nM.

For `O=C(c1ccc2c(-c3ccc4c(=O)[nH]ncc4c3)cccc2c1)N1CC2(CCC2)C1` [compound 121], the IC50 is less than 3 nM. In the case of `O=C(c1ccc2c(-c3ccc4c(=O)[nH]ncc4c3)cccc2c1)N1C[C@H]2CCC[C@H]2C1` [compound 122], the IC50 is less than 3 nM. Next, `O=C(c1ccc2c(-c3ccc4c(=O)[nH]ncc4c3)cccc2c1)N1CC=CCC1` [compound 123]: less than 3 nM; `O=C(c1ccc2c(-c3ccc4c(=O)[nH]ncc4c3)cccc2c1)N1CCCC2CC21` (stereo not shown) [compound 124]: less than 3 nM. Consider `CC1CCN(C(=O)c2ccc3c(-c4cnc5c(c4)CN(C)C5=O)cccc3c2)CC1` [compound 125], for which the IC50 was less than 3 nM. Next, `O=C(O)c1c(F)cc(-c2cccc3cc(C(=O)N4CCC(F)(F)CC4)ccc23)cc1F` [compound 126]: less than 3 nM. Regarding `O=C(O)c1ncc(-c2cccc3cc(C(=O)N4CCC(F)(F)CC4)ccc23)cn1` [compound 127], the IC50 was less than 3 nM. With `O=C(c1ccc2c(-c3cnc4c(=O)[nH]cnc4c3)cccc2c1)N1CCC(F)(F)CC1` [compound 128], the 50% inhibitory concentration (IC50) was less than 3 nM. Turning to `COCn1nc2cc(-c3cccc4cc(C(=O)N5CCC(F)(F)CC5)ccc34)ccn2c1=O` [compound 129], the IC50 is less than 3 nM. With `O=C(O)c1ncc(-c2cccc3cc(C(=O)N4CCC(F)(F)CC4)ccc23)cc1F` [compound 130], the IC50 was less than 3 nM.

In the case of `O=C(c1cnc2c(-c3cnc4c(=O)[nH]ccc4c3)cccc2c1)N1CCC(F)(F)CC1` [compound 132], the IC50 was less than 3 nM. With `O=C(c1cnc2c(-c3cc4cc[nH]c(=O)c4cn3)cccc2c1)N1CCC(F)(F)CC1` [compound 133], the IC50 lay within 3 to 10 nM.

Regarding `O=C(c1cnc2c(-c3ccc4c(=O)[nH]ccc4c3)cccc2c1)N1CCC(F)(F)CC1` [compound 134], the half-inhibitory concentration (IC50) was less than 3 nM.

Consider `CN1Cc2cc(-c3ccc4ccc(C(=O)N5CCC(F)(F)CC5)cc4c3)ccc2C1=O` [compound 138], for which the IC50 is less than 3 nM. Consider `O=C(c1ccc2ccc(-c3ccc4c(=O)[nH]ccc4c3)cc2c1)N1CCC(F)(F)CC1` [compound 139], for which the IC50 was less than 3 nM. For the compound `O=C(c1cnc2c(-c3cnc4c(=O)[nH]ncc4c3)cccc2c1)N1CCC(F)(F)CC1` [compound 140], the IC50 is less than 3 nM.

As for `O=C(c1cnc2c(-c3ccc4c(=O)[nH]oc4c3)cccc2c1)N1CCC(F)(F)CC1` [compound 141], the IC50 is less than 3 nM. On to `Cn1cnc2cc(-c3cccc4cc(C(=O)N5CCC(F)(F)CC5)ccc34)cnc2c1=O` [compound 142], for which the IC50 is less than 3 nM.

Turning to `Cn1ccc2cc(-c3cccc4cc(C(=O)N5CCC(F)(F)CC5)cnc34)ccc2c1=O` [compound 143], the IC50 is less than 3 nM. On to `Cn1ccc2cc(-c3cccc4cc(C(=O)N5CCC(F)(F)CC5)cnc34)ncc2c1=O` [compound 144], for which the IC50 is no less than 10 nM. Turning to `Cn1ncc2cc(-c3cccc4cc(C(=O)N5CCC(F)(F)CC5)cnc34)cnc2c1=O` [compound 145], the IC50 is 3 to 10 nM.

On to `Cn1ccc2cc(-c3cccc4cc(C(=O)N5CCC(F)(F)CC5)cnc34)cnc2c1=O` [compound 146], for which the IC50 lay within 3 to 10 nM.

With `Cn1ncc2cc(-c3cccc4cc(C(=O)N5CCC(F)(F)CC5)cnc34)ccc2c1=O` [compound 147], the IC50 was less than 3 nM. With `Cn1oc2cc(-c3cccc4cc(C(=O)N5CCC(F)(F)CC5)cnc34)ccc2c1=O` [compound 148], the IC50 lay within 3 to 10 nM.

Regarding `CN1Cc2cc(-c3cccc4cc(C(=O)N5CC6(CCC6)C5)ccc34)cnc2C1=O` [compound 150], the IC50 is less than 3 nM. `CN1Cc2cc(-c3cccc4cc(C(=O)N5CCCC6CC65)ccc34)cnc2C1=O` (stereo not shown) [compound 151]: the IC50 was less than 3 nM. On to `CN1Cc2cc(-c3cccc4cc(C(=O)N5CC=CCC5)ccc34)cnc2C1=O` [compound 152], for which the IC50 was less than 3 nM. For `CN1Cc2cc(-c3cccc4cc(C(=O)N5C[C@H]6CCC[C@H]6C5)ccc34)cnc2C1=O` [compound 153], the IC50 is less than 3 nM. Consider `CCN(CC)C(=O)c1ccc2c(-c3cnc4c(c3)CN(C)C4=O)cccc2c1` [compound 154], for which the IC50 was less than 3 nM. As for `CCN(CC)C(=O)c1ccc2c(-c3ccc4c(=O)[nH]ncc4c3)cccc2c1` [compound 155], the IC50 is less than 3 nM. Regarding `CN1Cc2cc(-c3nccc4cc(C(=O)N5CCC(F)(F)CC5)ccc34)ccc2C1=O` [compound 156], the IC50 fell in the range of 3 to 10 nM. As to `Cn1ccc2cc(-c3c(F)ccc4cc(C(=O)N5CCC(F)(F)CC5)ccc34)ncc2c1=O` [compound 157], the IC50 fell in the range of 3 to 10 nM.

Values taken from patent US12304897B2, “15-PGDH inhibitors” (KYORIN PHARMACEUTICAL CO., LTD., priority 2019, dated 2025).
